Experimental data taken from patent publication US20240261414A1, “FATTY ACID AMIDE HYDROLASE (FAAH) CLEAVABLE PRODRUGS OF BRAIN TARGETING ACTIVES AND COMBINATION WITH PERIPHERALLY RESTRICTED FAAH INHIBITORS” (Autobahn Therapeutics, Inc., priority 2021, published 2024).

These compounds were tested against T1, recombinant human FAAH (rhFAAH) (Homo sapiens, UniProt O00519) (assay: FAAH substrate evaluation (acid metabolite formation)). Conditions: 0.5 ng/L rhFAAH, 1 μM test compound, Tris-EDTA buffer pH 8.0, room temperature, 0-60 minutes.
T1 construct: purchased Cayman Chemical (Ann Arbor, MI, USA)
T1 sequence (O00519 1-579): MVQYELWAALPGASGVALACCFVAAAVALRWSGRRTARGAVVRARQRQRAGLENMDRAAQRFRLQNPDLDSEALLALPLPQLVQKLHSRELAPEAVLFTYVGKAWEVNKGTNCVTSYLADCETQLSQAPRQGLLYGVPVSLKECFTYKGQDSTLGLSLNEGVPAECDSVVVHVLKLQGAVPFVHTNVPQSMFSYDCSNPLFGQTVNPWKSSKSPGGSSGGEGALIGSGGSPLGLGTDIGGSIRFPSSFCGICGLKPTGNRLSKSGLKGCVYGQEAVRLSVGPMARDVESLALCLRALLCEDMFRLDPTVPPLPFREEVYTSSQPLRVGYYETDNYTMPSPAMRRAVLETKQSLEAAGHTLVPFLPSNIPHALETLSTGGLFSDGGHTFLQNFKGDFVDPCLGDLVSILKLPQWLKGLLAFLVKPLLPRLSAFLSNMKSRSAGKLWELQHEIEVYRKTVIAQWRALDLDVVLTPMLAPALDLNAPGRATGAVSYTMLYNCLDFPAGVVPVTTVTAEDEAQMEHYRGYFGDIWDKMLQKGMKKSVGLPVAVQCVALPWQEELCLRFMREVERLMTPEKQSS
Assay type: biochemical
Description: Purified recombinant human FAAH (rhFAAH) was purchased from Cayman Chemical (Ann Arbor, MI, USA). The total volume for each incubation was 400 μL containing a final 0.5 ng/L rhFAAH, 1 μM test compound, 1.25% ethanol or 1 μM PF-3845 (FAAH inhibitor), and 0.1% bovine serum albumin in Tris-EDTA buffer at pH 8.0). The positive control was LL-341001. The incubation was conducted at the room temperature. At 0, 5, 15, 30 and 60 minutes, an aliquot of 30 μL reaction mixtures was removed and mixed with 300 μL acetonitrile containing 5 ng/mL terfenadine and 10 ng/mL tolbutamide as internal standards to quench the reaction. The resulting mixture was centrifuged at 4000 rpm, 4° C. for 15 minutes, and 100 μL supernatant was ready for LC-MS/MS analysis to measure the formation of acid metabolite.
Acquity Ultra Performance LC system from Waters was used for sample analysis. The chromatography was performed on a reverse phase Kinetex 2.6 μm C18 column, 2.1×30 mm, 100 Å. The mobile phase A comprised of 0.1% formic acid in water and mobile phase B comprised of 0.1% formic acid in acetonitrile with a 2-min run time at the flow rate of 0.8 mL/min for the acid metabolite from positive control or a 1.5 min run time at the flow rate of 0.9 mL/min for the acid metabolite of test compounds. The mass spectrometer (API-5500 and API Q Trap 4000 Applied Biosystems/MDS SCIEX Instruments, Framingham, MA, USA) was operated under ESI positive or negative ion MRM mode.
The formation of acid metabolite was monitored and quantified using one calibration point of 1 μM. The observed rate constant (ke) for the acid metabolite formation was calculated by plotting the metabolite concentration versus time of incubation with the slope being ke and is shown in Table 2.
In the case of `O=C(NC1CC1)c1ccc2nc(-c3cc(Cl)cc(Cl)c3)oc2c1` [Compound 15], the “ke (observed rate constant for the acid metabolite formation)” value (from here on “ke”) is reported as “D (ke is 0)”.
For `Cc1c(C=CC(N)=O)ccc(OCc2cc(Cl)cc3c2OC(C)(C)C3)c1C` [Compound 9, 3-(4-((5-chloro-2,2-dimethyl-2,3-dihydrobenzofuran-7-yl)methoxy)-2,3-dimethylphenyl)propenamide], the “ke” value was “A (ke is more than or equal to 1.0)”.
For `Cc1noc(-c2ccc(CSCCC(=O)NC3CC3)cc2)c1NC(=O)OC(C)c1ccccc1Cl` (stereo not shown) [Compound 33], the “ke” value was “D (ke is 0)”.
With `CCc1cc(/C(C)=N/OCc2ccc(C3CCCCC3)c(C(F)(F)F)c2)ccc1CN1CC(C(=O)NC)C1` [Compound 18] the “ke” value was “B (ke is less than 1.0 and more than or equal to 0.1)”.
`Cc1c(C=CC(=O)Nc2ccncc2)ccc(OCc2cc(Cl)cc3c2OC(C)(C)C3)c1C` [Compound 7, 3-(4-((5-chloro-2,2-dimethyl-2,3-dihydrobenzofuran-7-yl)methoxy)-2,3-dimethylphenyl)-N-(pyridin-4-yl)propenamide] was tested, and the “ke” value was “A (ke is more than or equal to 1.0)”.
With `O=C(C[C@H]1CCc2c1[nH]c1ccc(OCc3ccc(C4CCCC4)c(C(F)(F)F)c3)cc21)NC1CC1F` (stereo partly shown) [Compound 32] the “ke” value was “C (ke is less than 0.1 and more than 0)”.
`CCCCC[C@H](O)CC[C@@H]1[C@H]2Cc3cccc(OCC(N)=O)c3C[C@H]2C[C@H]1O` [Compound 14] was tested, and the “ke” value was “B (ke is less than 1.0 and more than or equal to 0.1)”.
With `Cc1noc(-c2ccc(CSCCC(=O)N[C@@H]3C[C@H]3F)cc2)c1NC(=O)OC(C)c1ccccc1Cl` (stereo partly shown) [Compound 40] the “ke” value was “C (ke is less than 0.1 and more than 0)”.
`CCc1cc(/C(C)=N/OCc2ccc(C3CCCCC3)c(C(F)(F)F)c2)ccc1CN1CC(C(N)=O)C1` [Compound 19] was tested, and the “ke” value was “D (ke is 0)”.
In the case of `CCCCC[C@H](O)CC[C@@H]1[C@H]2Cc3cccc(OCC(=O)NC)c3C[C@H]2C[C@H]1O` [Compound 13], the “ke” value is reported as “D (ke is 0)”.
For `CCCCC[C@H](O)CC[C@@H]1[C@H]2Cc3cccc(OCC(=O)Nc4ccncc4)c3C[C@H]2C[C@H]1O` [Compound 55], the “ke” value was “A (ke is more than or equal to 1.0)”.
For `O=C(Nc1cccnc1)c1ccc2nc(-c3cc(Cl)cc(Cl)c3)oc2c1` [Compound 52], the “ke” value was “A (ke is more than or equal to 1.0)”.
In the case of `Cc1c(C=CC(=O)N[C@@H]2C[C@@H]2F)ccc(OCc2cc(Cl)cc3c2OC(C)(C)C3)c1C` [Compound 5, 3-(4-((5-chloro-2,2-dimethyl-2,3-dihydrobenzofuran-7-yl)methoxy)-2,3-dimethylphenyl)-N-((1R,2S)-2-fluorocyclopropyl)propenamide], the “ke” value is reported as “B (ke is less than 1.0 and more than or equal to 0.1)”.
